Data from ChEMBL document CHEMBL1615345, “Evaluation of a published in silico model and construction of a novel Bayesian model for predicting phospholipidosis inducing potential” (J Chem Inf Model, 2007).

These compounds were tested on Phospholipidosis.
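Note: phospholipidosis status taken from published literature.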

| Compound | Phospholipidosis |
| --- | --- |
| CN(C)CCN(Cc1cccs1)c1ccccn1 | Not Active |
| CC1=C(CC(=O)O)c2cc(F)ccc2/C1=C\c1ccc([S+](C)[O-])cc1 (stereo not given) | Not Active |
| C=C1C[C@@H]1C[C@H](N)C(=O)O | Not Active |
| S=C=Nc1cccc2ccccc12 [1-NAPHTHYLISOTHIOCYANATE] | Not Active |
| Cc1ccc2cc3c(ccc4ccccc43)c3c2c1CC3 [3-METHYLCHOLANTHRENE] | Not Active |
| Nc1nc(NC2CC2)c2ncn([C@H]3C=C[C@@H](CO)C3)c2n1 [ABACAVIR] | Not Active |
| CC(=O)Nc1ccc(O)cc1 [ACETAMINOPHEN] | Not Active |
| O=C(O)CCCCCCNC1c2ccccc2CCc2ccccc21 [AMINEPTINE] | Not Active |
| CC(=O)Oc1ccccc1C(=O)O [ASPIRIN] | Not Active |
| Cl.Cl.O=C(CCN1CCN2CCCC2C1)N1c2ccccc2Sc2ccc(Cl)cc21 (stereo not given) [AZACLORZINE HYDROCHLORIDE] | Not Active |
| [N-]=[N+]=CC(=O)OC[C@H](N)C(=O)O [AZASERINE] | Not Active |
| CC(O)(CS(=O)(=O)c1ccc(F)cc1)C(=O)Nc1ccc(C#N)c(C(F)(F)F)c1 (stereo not given) [BICALUTAMIDE] | Not Active |
| CC(NC(C)(C)C)C(=O)c1cccc(Cl)c1 (stereo not given) [BUPROPION] | Not Active |
| Cn1c(=O)c2c(ncn2C)n(C)c1=O [CAFFEINE] | Not Active |
| NC(=O)N1c2ccccc2C=Cc2ccccc21 [CARBAMAZEPINE] | Not Active |
| ClC(Cl)(Cl)Cl [CARBON TETRACHLORIDE] | Not Active |
| CC(C)(O/N=C(\C(=O)N[C@@H]1C(=O)N2C(C(=O)[O-])=C(C[n+]3ccccc3)CS[C@H]12)c1csc(N)n1)C(=O)O [CEFTAZIDIME] | Not Active |
| ClC(Cl)Cl [CHLOROFORM] | Not Active |
| CN(C)[C@@H]1C(O)=C(C(N)=O)C(=O)[C@@]2(O)C(O)=C3C(=O)c4c(O)ccc(Cl)c4[C@@](C)(O)[C@H]3C[C@@H]12 [CHLORTETRACYCLINE] | Not Active |
| CC(C)(Oc1ccc(C2CC2(Cl)Cl)cc1)C(=O)O (stereo not given) [CIPROFIBRATE] | Not Active |

| Compound | Phospholipidosis |
| --- | --- |
| CCOC(=O)C(C)(C)Oc1ccc(Cl)cc1 [CLOFIBRATE] | Not Active |
| COc1cc2c(c(OC)c1OC)-c1ccc(OC)c(=O)cc1[C@@H](NC(C)=O)CC2 [COLCHICINE] | Not Active |
| CC(=O)O[C@]1(C(C)=O)CC[C@H]2[C@@H]3C=C(Cl)C4=CC(=O)[C@@H]5C[C@@H]5[C@]4(C)[C@H]3CC[C@@]21C [CYPROTERONE ACETATE] | Not Active |
| O=C1CN(/N=C/c2ccc(-c3ccc([N+](=O)[O-])cc3)o2)C(O)=N1 [DANTROLENE] | Not Active |
| CC(=O)N(O)CCCCCNC(=O)CCC(=O)N(O)CCCCCNC(=O)CCC(=O)N(O)CCCCCN [DEFEROXAMINE] | Not Active |
| CN(C)[C@@H]1C(O)=C(C(N)=O)C(=O)[C@@]2(O)C(O)=C3C(=O)c4c(O)ccc(Cl)c4[C@@H](O)[C@H]3C[C@@H]12 [DEMECLOCYCLINE] | Not Active |
| O=C(O)Cc1ccccc1Nc1c(Cl)cccc1Cl [DICLOFENAC] | Not Active |
| O=C(O)c1cc(-c2ccc(F)cc2F)ccc1O [DIFLUNISAL] | Not Active |
| COc1cc2c(cc1OC)C(=O)C(CC1CCN(Cc3ccccc3)CC1)C2 (stereo not given) [DONEPEZIL] | Not Active |
| CCN1CC(CCN2CCOCC2)C(c2ccccc2)(c2ccccc2)C1=O (stereo not given) [DOXAPRAM] | Not Active |
| C[C@H]1c2cccc(O)c2C(=O)C2=C(O)[C@]3(O)C(=O)C(C(N)=O)=C(O)[C@@H](N(C)C)[C@@H]3[C@@H](O)[C@@H]21.O [DOXYCYCLINE] | Not Active |
| C#C[C@]1(O)CC[C@H]2[C@@H]3CCc4cc(O)ccc4[C@H]3CC[C@@]21C [ETHINYL ESTRADIOL] | Not Active |
| CCSCC[C@H](N)C(=O)O [ETHIONINE] | Not Active |
| COc1cc([C@@H]2c3cc4c(cc3[C@@H](O[C@@H]3O[C@@H]5CO[C@@H](C)O[C@H]5[C@H](O)[C@H]3O)[C@H]3COC(=O)[C@H]23)OCO4)cc(OC)c1O [ETOPOSIDE] | Not Active |
| NC(N)=Nc1nc(CSCCC(N)=NS(N)(=O)=O)cs1 [FAMOTIDINE] | Not Active |
| NC(=O)OCC(COC(N)=O)c1ccccc1 [FELBAMATE] | Not Active |
| CC(C)OC(=O)C(C)(C)Oc1ccc(C(=O)c2ccc(Cl)cc2)cc1 [FENOFIBRATE] | Not Active |
| CC(C)C(=O)Nc1ccc([N+](=O)[O-])c(C(F)(F)F)c1 [FLUTAMIDE] | Not Active |
| Cc1ccc(C)c(OCCCC(C)(C)C(=O)O)c1 [GEMFIBROZIL] | Not Active |
| N[C@H]1C(O)O[C@H](CO)[C@@H](O)[C@@H]1O (stereo not given in full) [GLUCOSAMINE] | Not Active |

| Compound | Phospholipidosis |
| --- | --- |
| NN [HYDRAZINE] | Not Active |
| NC(=O)NO [HYDROXYUREA] | Not Active |
| CN(C)C(=N)N=C(N)N [METFORMIN] | Not Active |
| CCC(=O)C(CC(C)N(C)C)(c1ccccc1)c1ccccc1 (stereo not given) [METHADONE] | Not Active |
| CN(Cc1cnc2nc(N)nc(N)c2n1)c1ccc(C(=O)N[C@@H](CCC(=O)O)C(=O)O)cc1 [METHOTREXATE] | Not Active |
| C[C@](N)(Cc1ccc(O)c(O)c1)C(=O)O [METHYLDOPA] | Not Active |
| CCC1(c2ccccc2)C(=O)NC(=O)NC1=O [PHENOBARBITAL] | Not Active |
| CNC(=O)Oc1ccc2c(c1)[C@]1(C)CCN(C)[C@@H]1N2C [PHYSOSTIGMINE] | Not Active |
| Cc1cccc(Nc2cc(Cl)nc(SCC(=O)O)n2)c1C [PIRINIXIC ACID] | Not Active |
| CN1C(C(=O)Nc2ccccn2)=C(O)c2ccccc2S1(=O)=O [PIROXICAM] | Not Active |
| CCN(CC)CCOC(=O)c1ccc(N)cc1 [PROCAINE] | Not Active |
| CO[C@H]1/C=C/O[C@@]2(C)Oc3c(C)c(O)c4c(O)c(c(/C=N/N5CCN(C)CC5)c(O)c4c3C2=O)NC(=O)/C(C)=C\C=C\[C@H](C)[C@H](O)[C@@H](C)[C@@H](O)[C@@H](C)[C@H](OC(C)=O)[C@@H]1C [RIFAMPIN] | Not Active |
| CN(C)[C@@H]1C(O)=C(C(=O)NCN2CCCC2)C(=O)[C@@]2(O)C(O)=C3C(=O)c4c(O)cccc4[C@@](C)(O)[C@H]3C[C@@H]12 [ROLITETRACYCLINE] | Not Active |
| Cc1cn([C@H]2C=C[C@@H](CO)O2)c(=O)[nH]c1=O [STAVUDINE] | Not Active |
| N=C(N)NCCCCCCCCCCNC(=N)N [SYNTHALIN] | Not Active |
| Nc1c2c(nc3ccccc13)CCCC2 [TACRINE] | Not Active |
| Cn1nnc2c(C(N)=O)ncn2c1=O [TEMOZOLOMIDE] | Not Active |
| CC(=N)S [THIOACETAMIDE] | Not Active |
| CCCC(CCC)C(=O)[O-].[Na+] [VALPROATE SODIUM] | Not Active |
| Cc1cn([C@H]2C[C@H](N=[N+]=[N-])[C@@H](CO)O2)c(=O)[nH]c1=O [ZIDOVUDINE] | Not Active |
